{"source": "patent US20080293076A1", "about": "“Method to improve barrier function of cell-cell junctions” (UMC Utrecht Holding B.V., priority 2007, published 2008)", "test_system": "HUVEC", "experiment": "Endothelial permeability assay: electrical resistance across HUVEC monolayer (ECIS)", "type": "cell-based, human", "details": "for decreased resistance in PDZ-GEF2-depleted cells: PDZ-GEF2 siRNA", "experimental": "FIG. 2: PDZ-GEF2 knockdown in HUVECs leads to immature adherens junction and decreases endothelial resistance. Panel A: PDZ-GEF2 knockdown leads to immature VE-cadherin-based junctions in endothelial cells. HUVEC were transfected twice with scrambled, Epac1 or PDZ-GEFs siRNA and replated on glass coverslips. The cells were fixed when they formed a monolayer and immunostained with anti-VE-cadherin antibody. Panel B: Basal electrical resistance across HUVEC monolayers. Cells were treated as described in A and replated on electrodes. ECIS was measured continuously for 15 hours and the values reported are the final time points. […] The values reported correspond to the endothelial resistance measured 90 minutes after adding 007 to the culture media. * p<0.03 control mock vs 007; p<0.001 PDZ-GEF2.285 mock vs 007.\n293T and A549 cells were transfected using FuGENE6 reagent for 48 hours (Roche Diagnostics Corporation). For siRNA, A549 cells and HUVEC were transfected using oligofectamine (Invitrogen) for 24 to 48 hours according to the manufacturer's instructions. In the case of the HUVEC, transfection was repeated after 24 hours. Samples were analyzed 48 hours after the second round of transfection. Oligos sequences (Dharmacon): PDZ-GEF2 (285: GGATCCAACTTATATAGAA) (SEQ ID NO:______); (289: GACACGGATTGTATTATTA) (SEQ ID NO:______); *Epac1 (GCACCTA CGTCTGCAACAA) (SEQ ID NO:______) and (CCATCATCCTGCGAGAAGA) (SEQ ID NO:______). 8-pCPT-2′O-Me-cAMP/8-pCPT -2′-OMe-cAMP (Biolog) was used at a final concentration of 100 μM. Quantification of the PDZ-GEF2 knockdown was performed using Scion Image (Scion Corporation).\nTo assess endothelial permeability, we measured electrical resistance continuously across endothelial cell monolayer using the methodology known as “Electric Cell-Substrate Impedance Sensing” (ECIS).^[21] Briefly, HUVEC were grown to confluence on small gold electrodes and ECIS was subsequently monitored for up to 15 hours. Data was analyzed using the Applied Biophysics software.", "key": {"[1]": {"details": "HUVEC, 100 μM, 30-minute stimulation"}}, "data": [{"smiles": "CO[C@@H]1[C@@H]2OP(=O)(O)OC[C@H]2O[C@H]1n1c(Sc2ccc(Cl)cc2)nc2c(N)ncnc21", "note": "[8-pCPT-2′-OMe-cAMP]", "values": [{"measurement": "endothelial resistance in PDZ-GEF2 knockdown HUVEC", "setting": "90 minutes after adding 007, PDZ-GEF2.285, p<0.001 mock vs 007", "value": "rescues the PDZ-GEF2 knockdown phenotype"}, {"measurement": "endothelial resistance in control HUVEC", "setting": "90 minutes after adding 007 to the culture media, p<0.03 mock vs 007", "value": "increases endothelial resistance"}, {"measurement": "electrical resistance in Epac1 siRNA cells", "setting": "HUVEC transfected with Epac1 siRNA, 100 μM", "value": "minimal effect"}, {"measurement": "electrical resistance in scrambled siRNA cells", "setting": "[1]", "value": "increased resistance"}, {"measurement": "decreased resistance in PDZ-GEF2-depleted cells", "setting": "[1]", "value": "completely rescued"}, {"measurement": "decreased resistance in PDZ-GEF2-depleted cells", "setting": "HUVEC, 100 μM, 30-minute stimulation, listed as 8-pCPT-2′OMe-cAMP", "value": "rescued"}]}]}
